For the experiment, the system named is BDF1 mice, P388 leukemia ip, median survival T/C. Kind of experiment: NCI In Vivo Anticancer Drug Screen. Data for tumor model P388 Leukemia (intraperitoneal) in B6D2F1 (BDF1) mice. The note with it: endpoint: median survival time, higher = longer survival. The method in brief: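 Survival ratio, drug arm over vehicle arm, in mice with a transplanted tumour.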

The mark [1] stands for this setting: dose: 25.0 mg/kg/injection, schedule: Q01DX009 (ip), vehicle: saline.
Where [2] appears, read: dose: 50.0 mg/kg/injection, schedule: Q01DX009 (ip), vehicle: saline.
[3] abbreviates: dose: 100.0 mg/kg/injection, schedule: Q01DX009 (ip), vehicle: saline.
Setting [4] is: dose: 25.0 mg/kg/injection, schedule: Q04DX003 (ip), vehicle: saline.
Setting [5] is: dose: 50.0 mg/kg/injection, schedule: Q04DX003 (ip), vehicle: saline.
Setting [6] is: dose: 100.0 mg/kg/injection, schedule: Q04DX003 (ip), vehicle: saline.
Setting [7] is: dose: 6.25 mg/kg/injection, schedule: Q01DX009 (ip), vehicle: saline with Tween-80.
Where [8] appears, read: dose: 25.0 mg/kg/injection, schedule: Q01DX009 (ip), vehicle: saline with Tween-80.
Where [9] appears, read: dose: 200.0 mg/kg/injection, schedule: Q04DX003 (ip), vehicle: saline.
The mark [10] stands for this setting: dose: 400.0 mg/kg/injection, schedule: Q04DX003 (ip), vehicle: saline.
[11] abbreviates: dose: 12.5 mg/kg/injection, schedule: Q01DX009 (ip), vehicle: saline.
[12] abbreviates: dose: 50.0 mg/kg/injection, schedule: Q01DX009 (ip), vehicle: saline with Tween-80.
Setting [13] is: dose: 100.0 mg/kg/injection, schedule: Q01DX009 (ip), vehicle: saline with Tween-80.

Several values for one entry are separate records, joined by “and”; a condition that tells them apart may be missing. Equal values may be shown once. Inconclusive results and toxic doses are left out.

As to `COc1cccc2c1C(=O)c1c(O)c3c(c(O)c1C2=O)C[C@@](O)(/C(C)=N/NC(=O)c1cccc([N+](=O)[O-])c1)C[C@@H]3OC1CC(N)C(O)C(C)O1` (stereo partly specified), the T/C is 152 % of control (dose: 0.25 mg/kg/injection, schedule: Q01DX009 (ip), vehicle: water); 163 % of control (dose: 0.5 mg/kg/injection, schedule: Q01DX009 (ip), vehicle: water); 166 % of control and 191 % of control (dose: 1.0 mg/kg/injection, schedule: Q01DX009 (ip), vehicle: water); 156 % of control and 214 % of control (dose: 2.0 mg/kg/injection, schedule: Q01DX009 (ip), vehicle: water); 244 % of control and 184 % of control (dose: 4.0 mg/kg/injection, schedule: Q01DX009 (ip), vehicle: water); 169 % of control (dose: 8.0 mg/kg/injection, schedule: Q01DX009 (ip), vehicle: water).
For `C[N+](C)(C)Cc1ccccc1C[N+](C)(C)C`, the T/C under setting [1] is 116 % of control, the T/C under setting [2] is 112 % of control and the T/C under setting [3] was 112 % of control.
As to `CC1(C)O[C@]2(C)CC[C@@H]1[C@H]1O[C@@H]12`, the T/C was 102 % of control (dose: 50.0 mg/kg/injection, schedule: Q01DX005 (ip), vehicle: saline); 100 % of control (dose: 100.0 mg/kg/injection, schedule: Q01DX005 (ip), vehicle: saline); 102 % of control (dose: 200.0 mg/kg/injection, schedule: Q01DX005 (ip), vehicle: saline).
As to `CCOC(=O)C(C)(Br)C(=O)OCC`, the T/C under setting [4] is 109 % of control, the T/C under setting [5] is 100 % of control and the T/C under setting [6] was 113 % of control.
For `OC(c1ccc(Cl)cc1)(c1ccc(Cl)cc1)C(F)(F)F`, the T/C is, setting by setting: (dose: 100.0 mg/kg/injection, schedule: Q01DX009 (sc), vehicle: olive oil, sesame oil, peanut oil) 96 % of control; (dose: 100.0 mg/kg/injection, schedule: Q04DX003 (sc), vehicle: olive oil, sesame oil, peanut oil) 109 % of control; (dose: 200.0 mg/kg/injection, schedule: Q04DX003 (sc), vehicle: olive oil, sesame oil, peanut oil) 100 % of control; (dose: 400.0 mg/kg/injection, schedule: Q04DX003 (sc), vehicle: olive oil, sesame oil, peanut oil) 95 % of control.
With `CCCCCCC(O)CCCCCC`, the T/C is 90 % of control (dose: 100.0 mg/kg/injection, schedule: Q01DX009 (ip), vehicle: other) and 105 % of control (dose: 200.0 mg/kg/injection, schedule: Q01DX009 (ip), vehicle: other).
On to `OC(C1CO1)C(O)C1CO1` (stereo unspecified), for which the T/C by setting is: (dose: 1.0 mg/kg/injection, schedule: Q01DX009 (ip), vehicle: saline) 282 % of control; (dose: 2.0 mg/kg/injection, schedule: Q01DX009 (ip), vehicle: saline) 168 % of control; (dose: 2.5 mg/kg/injection, schedule: Q01DX009 (ip), vehicle: saline) 190 % of control; (dose: 5.0 mg/kg/injection, schedule: Q01DX009 (ip), vehicle: saline) 260 % of control; (dose: 6.7 mg/kg/injection, schedule: Q01DX001 (ip), vehicle: saline) 189 % of control; (dose: 6.7 mg/kg/injection, schedule: Q04DX003 (ip), vehicle: saline) 250 % of control. Also, the T/C by setting is: (dose: 10.0 mg/kg/injection, schedule: Q01DX001 (ip), vehicle: saline) 336 % of control and 209 % of control and 219 % of control; (dose: 10.0 mg/kg/injection, schedule: Q01DX009 (ip), vehicle: saline) 110 % of control; (dose: 10.0 mg/kg/injection, schedule: Q04DX003 (ip), vehicle: saline) 413 % of control; (dose: 12.5 mg/kg/injection, schedule: Q01DX001 (ip), vehicle: saline) 231 % of control and 292 % of control and 333 % of control; (dose: 12.5 mg/kg/injection, schedule: Q04DX003 (ip), vehicle: saline) 387 % of control; (dose: 15.0 mg/kg/injection, schedule: Q01DX001 (ip), vehicle: saline) 280 % of control and 292 % of control and 318 % of control.
Turning to `O=S(=O)(F)c1ccc(N=C=S)cc1`, the T/C runs as follows: under setting [7], 120 % of control; (dose: 12.5 mg/kg/injection, schedule: Q01DX009 (ip), vehicle: saline with Tween-80) 116 % of control; under setting [8], 112 % of control.
With `COc1cc2c(cc1OC)C(=O)Cc1ccc3c(c1CN(C)CC2)OCO3`, the T/C is, setting by setting: (dose: 1.5 mg/kg/injection, schedule: Q01DX009 (ip), vehicle: saline sonified) 95 % of control; (dose: 3.0 mg/kg/injection, schedule: Q01DX009 (ip), vehicle: saline sonified) 100 % of control; (dose: 6.0 mg/kg/injection, schedule: Q01DX009 (ip), vehicle: saline sonified) 112 % of control.
With `CN(C)P(=O)(N(C)C)N1CC1`, the T/C was 192 % of control (dose: 90.0 mg/kg/injection, schedule: Q04DX003 (ip), vehicle: saline); 157 % of control under setting [6]; 176 % of control (dose: 135.0 mg/kg/injection, schedule: Q04DX003 (ip), vehicle: saline); 233 % of control and 211 % of control under setting [9].
On to `Cc1ccc(NC2=CC(=O)C(=O)C=C2Nc2ccc(C)cc2)cc1`, for which the T/C is 88 % of control (dose: 15.0 mg/kg/injection, schedule: Q01DX009 (ip), vehicle: saline with Tween-80); 88 % of control (dose: 30.0 mg/kg/injection, schedule: Q01DX009 (ip), vehicle: saline with Tween-80); 100 % of control (dose: 60.0 mg/kg/injection, schedule: Q01DX009 (ip), vehicle: saline with Tween-80).
Take `O=S(=O)(O)CCC(CO)(CO)CO`: the T/C runs as follows: under setting [6], 100 % of control; under setting [9], 95 % of control; under setting [10], 95 % of control.
As for `NOCc1cc2c(cc1Cl)OCO2`, the T/C is, setting by setting: (dose: 100.0 mg/kg/injection, schedule: Q04DX003 (ip), vehicle: Klucel (hydroxypropylcellulose) (HPC)) 95 % of control; (dose: 200.0 mg/kg/injection, schedule: Q04DX003 (ip), vehicle: Klucel (hydroxypropylcellulose) (HPC)) 100 % of control; (dose: 400.0 mg/kg/injection, schedule: Q04DX003 (ip), vehicle: Klucel (hydroxypropylcellulose) (HPC)) 113 % of control.
For the molecule `CC[P+](CC)(CC)CCCCI`, the T/C is 120 % of control (dose: 6.25 mg/kg/injection, schedule: Q01DX009 (ip), vehicle: saline); 123 % of control under setting [11]; 108 % of control and 120 % of control under setting [1]; 99 % of control under setting [2].
As to `CCOC(=O)N1CCN(CCCCCOc2ccccc2C2CCCCC2)CC1`, the T/C is, setting by setting: under setting [12], 111 % of control; under setting [13], 120 % of control.
In the case of `O=[N+]([O-])c1ccc(/C=C2\c3ccccc3-c3nc4ccccc4nc32)cc1`, the T/C (dose: 150.0 mg/kg/injection, schedule: Q01DX001 (ip), vehicle: other) was 118 % of control and the T/C (dose: 300.0 mg/kg/injection, schedule: Q01DX001 (ip), vehicle: other) is 86 % of control.
Turning to `Cc1c[n+]([O-])cc(C)c1[N+](=O)[O-]`, the T/C under setting [8] is 100 % of control; the T/C under setting [12] is 90 % of control; the T/C under setting [13] is 90 % of control; the T/C (dose: 200.0 mg/kg/injection, schedule: Q01DX009 (ip), vehicle: saline with Tween-80) was 100 % of control; the T/C (dose: 400.0 mg/kg/injection, schedule: Q01DX009 (ip), vehicle: saline with Tween-80) is 100 % of control.
Take `CN(C)c1nn2c(-c3ccccc3)nnc2o1`: the T/C under setting [9] is 105 % of control and the T/C under setting [10] is 120 % of control.
Consider `O=C1C2CCC(C2)[CH]1[Hg][Cl]` (stereo unspecified), for which the T/C is, setting by setting: (dose: 1.56 mg/kg/injection, schedule: Q01DX009 (ip), vehicle: saline with Tween-80) 102 % of control; (dose: 3.13 mg/kg/injection, schedule: Q01DX009 (ip), vehicle: saline with Tween-80) 103 % of control; under setting [7], 118 % of control.
On to `O=[N+]([O-])c1ccc(N2CCCCC2)c([N+](=O)[O-])c1`, for which the T/C reads like this: under setting [11], 110 % of control; under setting [1], 109 % of control; under setting [4], 121 % of control; under setting [2], 116 % of control; under setting [5], 114 % of control; under setting [3], 100 % of control. The T/C under setting [6] is 112 % of control; the T/C (dose: 200.0 mg/kg/injection, schedule: Q01DX009 (ip), vehicle: saline) was 110 % of control; the T/C under setting [9] was 123 % of control; the T/C (dose: 400.0 mg/kg/injection, schedule: Q01DX009 (ip), vehicle: saline) is 110 % of control; the T/C under setting [10] is 102 % of control.

For the origin of these results see PubChem BioAssay AID328 (DTP/NCI, 2004).
